Assays:
[1] = Passive permeability in MDCK cells; type: ADME, cell-based, Canis lupus familiaris; details: dog, read-out: permeability
[2] = Dose normalized AUC in Sprague-Dawley rat at 60 mg/kg, po using crystalline sample during 7 day dose ranging study by LC/MS/MS analysis; type: ADME, organism-based; details: in vivo, 168 h
[3] = Unbound fraction in dog blood; type: ADME, tissue-based, Canis lupus familiaris
[4] = biological target: Toll-like receptor 2 (Homo sapiens, UniProt O60603); assay: Inhibition of TLR2 in HEK293 cells assessed as reduction in Pam2CSK4-induced IL8 production; type: cell-based
Toll-like receptor 2, sequence (O60603 whole entry): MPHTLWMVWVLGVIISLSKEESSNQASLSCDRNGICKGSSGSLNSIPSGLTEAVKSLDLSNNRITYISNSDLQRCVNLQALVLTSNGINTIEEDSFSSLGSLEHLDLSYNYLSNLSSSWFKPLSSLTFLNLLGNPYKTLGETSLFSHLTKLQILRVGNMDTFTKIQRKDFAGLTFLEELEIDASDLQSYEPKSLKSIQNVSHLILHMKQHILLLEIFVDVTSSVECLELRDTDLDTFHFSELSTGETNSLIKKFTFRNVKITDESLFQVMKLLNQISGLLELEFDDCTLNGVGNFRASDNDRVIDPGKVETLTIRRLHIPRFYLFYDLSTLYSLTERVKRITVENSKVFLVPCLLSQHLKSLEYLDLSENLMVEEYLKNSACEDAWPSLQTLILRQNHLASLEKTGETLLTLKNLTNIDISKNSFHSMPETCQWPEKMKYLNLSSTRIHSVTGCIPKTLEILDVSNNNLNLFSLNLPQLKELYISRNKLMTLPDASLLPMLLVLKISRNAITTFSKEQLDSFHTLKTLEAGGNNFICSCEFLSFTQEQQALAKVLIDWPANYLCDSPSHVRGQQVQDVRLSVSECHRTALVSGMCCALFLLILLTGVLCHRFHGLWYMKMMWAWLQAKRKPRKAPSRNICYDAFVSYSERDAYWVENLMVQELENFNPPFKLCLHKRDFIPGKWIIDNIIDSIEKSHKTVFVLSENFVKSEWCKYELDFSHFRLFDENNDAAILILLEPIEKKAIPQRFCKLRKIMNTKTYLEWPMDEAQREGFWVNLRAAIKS

[5] = system: Intestinal mucosa; assay: Antiinflammatory activity in crohn's disease patient derived inflamed intestinal mucosa assessed as reduction in IL1beta production measured after overnight incubation by immunoassay; type: functional, tissue-based; details: Homo sapiens
[6] = Inhibition of TNFR in human monocytes assessed as reduction in TNFalpha-induced IL8 production; type: cell-based
[7] = Clearance in minipig hepatocytes; type: ADME, cell-based, Sus scrofa, Hepatocyte; details: pig
[8] = Dose normalized AUC in Sprague-Dawley rat at 200 mg/kg, po using crystalline sample during 7 day dose ranging study by LC/MS/MS analysis; type: ADME, organism-based; details: in vivo, 168 h
[9] = biological target: Toll-like receptor 4 (Homo sapiens, UniProt O00206); assay: Inhibition of TLR4 in human monocytes assessed as reduction in LPS-induced TNFalpha production; type: cell-based
Toll-like receptor 4, sequence (O00206 whole entry): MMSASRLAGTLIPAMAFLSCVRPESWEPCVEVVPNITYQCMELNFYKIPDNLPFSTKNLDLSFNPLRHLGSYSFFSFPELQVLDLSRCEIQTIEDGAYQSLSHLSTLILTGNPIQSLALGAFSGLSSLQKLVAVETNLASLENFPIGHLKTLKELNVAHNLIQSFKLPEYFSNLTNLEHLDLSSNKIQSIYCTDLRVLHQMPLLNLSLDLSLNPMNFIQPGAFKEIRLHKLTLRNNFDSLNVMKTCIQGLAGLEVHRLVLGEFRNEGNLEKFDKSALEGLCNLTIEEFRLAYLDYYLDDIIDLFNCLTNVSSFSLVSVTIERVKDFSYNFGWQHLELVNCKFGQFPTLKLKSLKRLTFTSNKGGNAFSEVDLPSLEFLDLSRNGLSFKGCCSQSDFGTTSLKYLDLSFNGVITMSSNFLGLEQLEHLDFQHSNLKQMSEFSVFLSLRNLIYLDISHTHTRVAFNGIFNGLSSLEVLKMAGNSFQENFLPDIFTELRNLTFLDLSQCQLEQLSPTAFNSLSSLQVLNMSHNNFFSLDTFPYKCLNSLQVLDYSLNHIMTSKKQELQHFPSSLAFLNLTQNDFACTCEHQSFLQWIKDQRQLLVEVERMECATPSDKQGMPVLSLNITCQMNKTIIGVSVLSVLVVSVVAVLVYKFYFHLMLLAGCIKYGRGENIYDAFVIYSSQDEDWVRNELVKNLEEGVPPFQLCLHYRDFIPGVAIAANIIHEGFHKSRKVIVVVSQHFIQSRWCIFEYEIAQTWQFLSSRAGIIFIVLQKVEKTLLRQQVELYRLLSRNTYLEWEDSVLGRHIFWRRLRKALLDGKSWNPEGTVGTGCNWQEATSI

[10] = biological target: Tyrosine-protein kinase ABL2 (Homo sapiens) (UniProt P42684); assay: Inhibition of human ABL2 at 1 uM using EAIYAAPFAKKK as substrate in presence of [gamma-33P]ATP relative to control
Tyrosine-protein kinase ABL2 (Homo sapiens), sequence (P42684 whole entry): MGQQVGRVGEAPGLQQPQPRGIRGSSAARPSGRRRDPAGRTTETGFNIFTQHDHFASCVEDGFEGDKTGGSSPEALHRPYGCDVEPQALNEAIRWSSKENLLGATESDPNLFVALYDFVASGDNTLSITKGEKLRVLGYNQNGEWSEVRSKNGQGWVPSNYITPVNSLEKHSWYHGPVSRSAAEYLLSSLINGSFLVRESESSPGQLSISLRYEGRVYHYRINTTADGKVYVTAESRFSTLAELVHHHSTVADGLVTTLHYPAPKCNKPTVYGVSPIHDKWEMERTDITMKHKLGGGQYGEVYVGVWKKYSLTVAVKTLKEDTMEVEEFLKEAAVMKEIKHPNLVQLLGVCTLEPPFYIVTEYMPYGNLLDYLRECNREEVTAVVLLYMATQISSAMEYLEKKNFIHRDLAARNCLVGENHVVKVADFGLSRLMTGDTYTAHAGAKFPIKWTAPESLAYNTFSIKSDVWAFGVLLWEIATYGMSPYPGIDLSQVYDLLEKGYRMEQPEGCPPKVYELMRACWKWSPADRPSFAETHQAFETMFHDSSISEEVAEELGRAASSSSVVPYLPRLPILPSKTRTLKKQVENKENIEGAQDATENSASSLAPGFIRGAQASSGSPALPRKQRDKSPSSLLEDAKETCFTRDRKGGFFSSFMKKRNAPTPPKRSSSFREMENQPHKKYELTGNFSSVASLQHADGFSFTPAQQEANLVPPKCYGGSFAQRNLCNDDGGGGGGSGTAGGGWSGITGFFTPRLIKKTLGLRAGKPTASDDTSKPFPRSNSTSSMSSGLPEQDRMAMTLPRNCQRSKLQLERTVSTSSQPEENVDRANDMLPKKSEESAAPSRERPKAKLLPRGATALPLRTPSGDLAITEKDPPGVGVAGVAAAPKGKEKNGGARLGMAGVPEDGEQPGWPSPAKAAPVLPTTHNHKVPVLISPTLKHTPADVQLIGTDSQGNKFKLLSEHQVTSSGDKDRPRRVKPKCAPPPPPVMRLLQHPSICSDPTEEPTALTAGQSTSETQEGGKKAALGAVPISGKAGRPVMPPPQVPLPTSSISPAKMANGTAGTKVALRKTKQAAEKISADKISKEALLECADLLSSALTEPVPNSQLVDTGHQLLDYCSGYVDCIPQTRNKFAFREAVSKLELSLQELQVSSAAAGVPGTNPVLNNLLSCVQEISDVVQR

[11] = Drug uptake in po dosed Sprague-Dawley rat systemic circulation by LC/MS/MS analysis; type: ADME, organism-based; details: in vivo
[12] = biological target: Voltage-gated inwardly rectifying potassium channel KCNH2 (Homo sapiens, UniProt Q12809); assay: Inhibition of human ERG (1159 residues) expressed in CHOK1 cells at -80 mV holding potential measured after 5 mins by QPatch electrophysiology method; type: cell-based
Voltage-gated inwardly rectifying potassium channel KCNH2, sequence (Q12809 whole entry): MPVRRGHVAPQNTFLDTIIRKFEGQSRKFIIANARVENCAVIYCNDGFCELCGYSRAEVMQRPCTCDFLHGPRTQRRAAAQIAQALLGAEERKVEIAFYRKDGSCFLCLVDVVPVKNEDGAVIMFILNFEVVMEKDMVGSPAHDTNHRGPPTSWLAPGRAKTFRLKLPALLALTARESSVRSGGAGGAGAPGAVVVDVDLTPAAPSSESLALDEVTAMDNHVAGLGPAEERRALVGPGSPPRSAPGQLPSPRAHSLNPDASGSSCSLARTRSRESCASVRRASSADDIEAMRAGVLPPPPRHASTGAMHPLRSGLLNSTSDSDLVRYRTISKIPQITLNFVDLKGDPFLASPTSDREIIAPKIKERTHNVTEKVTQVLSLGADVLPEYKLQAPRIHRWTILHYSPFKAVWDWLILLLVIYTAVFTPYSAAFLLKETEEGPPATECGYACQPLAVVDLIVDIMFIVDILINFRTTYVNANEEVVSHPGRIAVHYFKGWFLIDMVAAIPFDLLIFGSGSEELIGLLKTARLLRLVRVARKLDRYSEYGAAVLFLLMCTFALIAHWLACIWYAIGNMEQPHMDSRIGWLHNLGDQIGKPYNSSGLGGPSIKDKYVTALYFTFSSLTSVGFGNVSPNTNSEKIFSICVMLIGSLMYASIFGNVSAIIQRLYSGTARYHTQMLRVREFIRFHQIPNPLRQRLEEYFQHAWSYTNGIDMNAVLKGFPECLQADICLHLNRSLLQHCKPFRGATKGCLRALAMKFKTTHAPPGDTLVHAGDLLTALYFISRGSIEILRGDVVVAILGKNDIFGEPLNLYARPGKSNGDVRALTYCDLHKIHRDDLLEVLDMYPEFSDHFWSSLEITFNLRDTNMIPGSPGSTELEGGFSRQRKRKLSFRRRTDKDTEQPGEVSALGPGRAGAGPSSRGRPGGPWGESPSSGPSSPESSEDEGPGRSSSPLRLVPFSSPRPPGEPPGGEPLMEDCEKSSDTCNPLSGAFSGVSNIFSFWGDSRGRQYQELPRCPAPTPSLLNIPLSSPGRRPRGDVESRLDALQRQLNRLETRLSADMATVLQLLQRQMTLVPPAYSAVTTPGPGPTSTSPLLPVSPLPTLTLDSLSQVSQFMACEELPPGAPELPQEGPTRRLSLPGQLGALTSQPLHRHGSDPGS

[13] = Cmax in Sprague-Dawley rat at 20 mg/kg, po using crystalline sample during 7 day dose ranging study by LC/MS/MS analysis; type: ADME, organism-based; parameters: dose 20 mg/kg, route oral; details: in vivo
[14] = Clearance in human hepatocytes; type: ADME, cell-based, Hepatocyte
[15] = AUC in Sprague-Dawley rat at 2 mg/kg, po by LC/MS/MS analysis; type: ADME, organism-based; details: in vivo
[16] = Cmax in Beagle dog at 2 mg/kg, po by LC/MS/MS analysis; type: ADME, organism-based, Canis lupus familiaris; parameters: dose 2 mg/kg, route oral; details: in vivo
[17] = Terminal half life in Sprague-Dawley rat at 2 mg/kg, po or 0.5 mg/kg, iv by LC/MS/MS analysis; type: ADME, organism-based; details: in vivo, read-out: beta t1/2 (converted)
[18] = Clearance in dog hepatocytes; type: ADME, cell-based, Canis lupus familiaris, Hepatocyte
[19] = Volume of distribution at steady state in Beagle dog at 2 mg/kg, po or 1.1 mg/kg, iv by LC/MS/MS analysis; type: ADME, organism-based, Canis lupus familiaris; details: in vivo, read-out: Vdss
[20] = biological target: T1, Interleukin-1 receptor type 1 (Homo sapiens, UniProt P14778); assay: Inhibition of IL1R in human monocytes assessed as reduction in IL1beta-induced TNFalpha production; type: cell-based
T1 sequence (P14778 whole entry): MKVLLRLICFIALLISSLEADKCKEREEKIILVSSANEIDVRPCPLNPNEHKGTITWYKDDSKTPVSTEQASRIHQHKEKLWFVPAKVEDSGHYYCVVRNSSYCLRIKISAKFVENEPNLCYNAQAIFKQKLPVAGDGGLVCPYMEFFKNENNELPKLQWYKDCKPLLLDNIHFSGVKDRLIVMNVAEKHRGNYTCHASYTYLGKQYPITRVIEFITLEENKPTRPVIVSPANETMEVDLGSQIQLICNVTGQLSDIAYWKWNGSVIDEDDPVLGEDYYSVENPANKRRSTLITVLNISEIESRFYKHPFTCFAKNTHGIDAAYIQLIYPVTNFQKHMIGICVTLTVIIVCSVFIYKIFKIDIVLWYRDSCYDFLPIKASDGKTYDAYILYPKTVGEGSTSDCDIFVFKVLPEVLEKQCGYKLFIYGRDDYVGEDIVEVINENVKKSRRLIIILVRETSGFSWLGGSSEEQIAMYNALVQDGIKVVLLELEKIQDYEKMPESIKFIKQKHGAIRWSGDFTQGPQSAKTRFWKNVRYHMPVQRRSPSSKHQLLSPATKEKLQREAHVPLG

[21] = system: Intestinal mucosa; assay: Antiinflammatory activity in ulcerative colitis patient derived inflamed intestinal mucosa assessed as reduction in IL6 production measured after overnight incubation by immunoassay; type: functional, tissue-based; details: Homo sapiens
[22] = (§1) AUC in Sprague-Dawley rat assessed as 2-((4-(Benzo[d]thiazol-5-ylamino)-6-(tert-butylsulfonyl)quinazolin-7-yl)oxy)ethanol level at 2 mg/kg, po by LC/MS/MS analysis; type: ADME, organism-based; details: in vivo
[23] = Solubility of the compound in FaSSIF measured after 4 hrs using hemi-calcium salt form of compound; type: physicochemical
[24] = Drug uptake in Sprague-Dawley rat systemic circulation at 2 mg/kg, po or 1.1 mg/kg, iv by LC/MS/MS analysis; type: ADME, organism-based; details: in vivo
[25] = Ratio of brain to blood concentration in Han Wistar rat assessed as 2-((4-(Benzo[d]thiazol-5-ylamino)-6-(tert-butylsulfonyl)quinazolin-7-yl)oxy)ethanol level at 2 mg/kg, iv administered as infusion for 4 hrs; type: ADME, organism-based
[26] = Half life in rat blood; type: ADME, tissue-based
[27] = Prodrug conversion in human hepatocytes assessed as 2-(4-(benzo[d]thiazol-5-ylamino)-7-(2-hydroxyethoxy)quinazolin-6-ylsulfonyl)-2-methylpropan-1-ol formation at 20 uM measured after 4 hrs; type: ADME, cell-based, Hepatocyte
[28] = Prodrug conversion in human hepatocytes assessed as benzothiazole ring opening at 20 uM measured after 4 hrs; type: ADME, cell-based, Hepatocyte
[29] = Prodrug conversion in rat hepatocytes assessed as benzothiazole ring opening at 20 uM measured after 4 hrs; type: ADME, cell-based, Hepatocyte
[30] = Prodrug conversion in mouse blood assessed as 2-((4-(Benzo[d]thiazol-5-ylamino)-6-(tert-butylsulfonyl)quinazolin-7-yl)oxy)ethanol formation at 0.25 to 145 mg/kg, po administered twice daily via gavage for 8 days; type: ADME, organism-based; details: in vivo, 192 h
[31] = Terminal half life in Sprague-Dawley rat assessed as 2-((4-(Benzo[d]thiazol-5-ylamino)-6-(tert-butylsulfonyl)quinazolin-7-yl)oxy)ethanol level at 2 mg/kg, po or 1.1 mg/kg, iv by LC/MS/MS analysis; type: ADME, organism-based; details: in vivo
[32] = Prodrug conversion in minipig hepatocytes assessed as oxidation at 20 uM measured after 4 hrs; type: ADME, cell-based, Sus scrofa, Hepatocyte; details: pig
[33] = Prodrug conversion in minipig hepatocytes assessed as 2-(4-(benzo[d]thiazol-5-ylamino)-7-(2-hydroxyethoxy)quinazolin-6-ylsulfonyl)-2-methylpropan-1-ol formation at 20 uM measured after 4 hrs; type: ADME, cell-based, Sus scrofa, Hepatocyte; details: pig
[34] = Prodrug conversion in human hepatocytes assessed as hydrogenation at 20 uM measured after 4 hrs; type: ADME, cell-based, Hepatocyte
[35] = Prodrug conversion in rat hepatocytes assessed as oxidation at 20 uM measured after 4 hrs; type: ADME, cell-based, Hepatocyte
[36] = as §1; type: ADME, organism-based; details: in vivo; remark: listed apart in the source
[37] = Half life in dog blood; type: ADME, tissue-based, Canis lupus familiaris
[38] = Half life in human intestinal S9 fraction; type: ADME, subcellular, Intestine

Work on CC(C)(C)S(=O)(=O)c1cc2c(Nc3ccc4scnc4c3)ncnc2cc1OCCO yielded a Papp [1] of 16.6 ×10⁻⁶ cm/s, an AUC/dose [2] of 0.39 kg·h/L and a fraction unbound [3] of 0.089. The IC50 [4] was greater than 10 µM, the Activity [5] was “Dose-dependent effect” and the IC50 [5] was 0.01 µM. The IC50 [6] was greater than 10 µM, the CLH [7] was 0.55 mL/min/g and the AUC/dose [8] was 0.21 kg·h/L. The IC50 [9] was greater than 10 µM, the inhibition [10] was 70 to 90% and the Drug uptake [11] was “Not Active”. It also gave an IC50 [12] greater than 30 µM, a Cmax [13] of 900 ng/mL and a CLH [14] of less than 0.48 mL/min/g. The AUC [15] was 460 ng·h/mL, the Cmax [16] was 470 ng/mL and the half-life [17] was 264 min. For the same compound, the CLH [18] was 0.65 mL/min/g, the Vd [19] was 2.6 L/kg and the IC50 [20] was greater than 10 µM. The Activity [21] was “Dose-dependent effect”, the IC50 [21] was 0.01 µM and the AUC [22] was 460 ng·h/mL.

In the case of CC(C)(C)S(=O)(=O)c1cc2c(Nc3ccc4scnc4c3)ncnc2cc1OCCOP(=O)(O)O.[CaH2], the solubility at 4 h [23] is reported as 130 µg/mL, the Drug uptake [24] is reported as “Not Active” and the Ratio [25] is reported as 0.065. For the same compound, the half-life [26] was 35 min, the Drug uptake [11] was “Not Active” and the IC50 [12] was greater than 30 µM. The Drug metabolism [27] was “Metabolite_Detected”, the Drug metabolism [28] was “Metabolite_Detected” and the Drug metabolism [29] was “Metabolite_Detected”. For the same compound, the Drug metabolism [30] was “Metabolite_Detected”, the “beta t1/2” value [31] was 144 min and the Drug metabolism [32] was “Metabolite_Detected”. The Drug metabolism [33] was “Metabolite_Detected”, the Drug metabolism [34] was “Metabolite_Detected” and the AUC [22] was 580 ng·h/mL. For the same compound, the Drug metabolism [35] was “Metabolite_Detected”, the AUC [36] was 560 ng·h/mL and the half-life [37] was 21 min. It also gave a half-life [38] of 18.3 min.

From ChEMBL document CHEMBL4364295, “Discovery of a First-in-Class Receptor Interacting Protein 2 (RIP2) Kinase Specific Clinical Candidate, 2-((4-(Benzo[d]thiazol-5-ylamino)-6-(tert-butylsulfonyl)quinazolin-7-yl)oxy)ethyl Dihydrogen Phosphate, for the Treatment of Inflammatory Diseases” (J Med Chem, 2019)
